Test results reported in patent publication US9371335B2, “Spirothienopyran-piperidine derivatives as ORL-1 receptor antagonists for their use in the treatment of alcohol dependence and abuse” (Eli Lilly and Company, priority 2011, dated 2016).

Columns and labels:
msP rats = assay: Stress-induced (yohimbine) reinstatement of ethanol-seeking in msP rats; assay type: in vivo, rat; settings: for Reduction vs. Vehicle (lever presses, yohimbine reinstatement) / Avg Lever Presses (Drug-treated): male msP rats, 30 mg/kg oral; for Avg Lever Presses (Drug-treated): yohimbine 2.0 mg/kg ip; for stress-induced reinstatement of ethanol-seeking: msP rats, result in words
From the text: Stress-Induced Reinstatement in msP Rats:
Stress is a key trigger for relapse to drug- and alcohol-seeking in humans and rodents (Sinha R (2008) Chronic stress, drug use, and vulnerability to addiction. Ann N Y Acad Sci 1141:105-130), and can be modeled in rats using a stress-induced reinstatement procedure. In this procedure, stress-induced reinstatement of alcohol-seeking is elicited by administration of the alpha2 adrenoceptor antagonist yohimbine, a known pharmacological stressor (Le A D, Harding S, Juzytsch W, Funk D and Shaham Y (2005) Role of alpha-2 adrenoceptors in stress-induced reinstatement of alcohol seeking and alcohol self-administration in rats. Psychopharmacology (Berl) 179:366-373).
Male msP rats are obtained from the University of Camerino (Marche, Italy) and individually housed with ad libitum access to water and standard laboratory chow. Rats are trained to lever press for 10% ethanol in water (v/v) in standard operant chambers (MED Associates, Inc., St. Albans, Vt.) located in sound-attenuating, ventilated environmental cubicles. The chambers consist of two stainless steel and two clear Plexiglas walls. The floor grid of the operant chambers consists of 0.5 cm diameter stainless steel bars placed approximately 1.5 cm apart. Each operant chamber is equipped with a drinking reservoir 4 cm above the grid floor, with two retractable operant levers located approximately 3 cm on either side of the drinking receptacle. Fluid delivery, lever presses, and presentation of visual stimuli (illumination of a white house light) are controlled by an IBM compatible computer for offline analysis.
Rats are first trained to self-administer ethanol solution in 30-min daily operant sessions under a FR1 schedule of reinforcement, in which each response on the active lever results in delivery of 0.1 ml of ethanol. Each ethanol delivery is associated with a 5-sec time-out signalled by illumination of a white house light. Alcohol self-administration training continues until stable baseline responding is achieved. […] The procedure of each session is the same as ethanol self-administration sessions except that the lever responses are no longer reinforced. Animals are pre-treated with vehicle for 3 days before the initial administration of ORL-1 receptor antagonists in order to familiarize them with the oral administration procedure. The msP rats are then subjected to the reinstatement test conducted under the same extinction conditions. Reinstatement consists of oral administration of vehicle or test compound (3 or 30 mg/kg, n=10/group, solubilized in a 1:1 mixture of distilled water and 1M H3PO4, using gentle warming in a 45-60° C. water bath), followed 30-min later by intraperitoneal administration of yohimbine (2.0 mg/kg) 30-min before the operant session.

P rats = assay: Free-choice ethanol self-administration in P rats; assay type: in vivo, rat; settings: for Mean EtOH Consumed in g/kg (Drug-treated) / Reduction vs. Vehicle (EtOH consumed): 12 hr; for ethanol self-administration: free-choice access, P rats and msP rats
From the text: Free-Choice Ethanol Self-Administration in Alcohol-Preferring Rats: P Rats:
In this procedure (modified from Rodd-Henricks Z A, McKinzie D L, Shaikh S R, Murphy J M, McBride W J, Lumeng L and Li T K (2000) Alcohol deprivation effect is prolonged in the alcohol preferring (P) rat after repeated deprivations. Alcohol Clin Exp Res 24:8-16), female P rats are obtained from a private colony (Taconic, Germantown, N.Y.), individually-housed with food, 15% ethanol (v/v, in water), and water available ad libitum, and maintained on a 12 hr. light/dark cycle (lights off at 16:00). The chambers are equipped with a force transduction system (TSE Systems, Bad Homburg, Germany) attached to the ethanol, water, and food receptacles to enable continuous monitoring of food and liquid consumption. Rats voluntarily consume 15% ethanol with a mean daily intake of roughly 5 g/kg for several months prior to drug testing. Rats are treated orally with vehicle or test compounds in the dose range of 3, 10, or 30 mg/kg (3 mL/kg dose volume, dissolved in a vehicle consisting of 20% Captisol® in 25 mM phosphate buffer at pH=2), or naltrexone (10 mg/kg, 1 mL/kg dose volume, dissolved in water) immediately prior to the onset of the dark cycle, using a within-subjects, crossover design (3-4 day washout between subsequent doses). In a separate experiment, rats receive oral administration of vehicle followed by 4 daily oral doses of vehicle or 30 mg/kg test compound immediately prior to the onset of the dark cycle, using a between-subjects design.

[1] = P rats, 30 mg/kg oral once daily, day 2
[2] = P rats, 30 mg/kg oral once daily, day 3
[3] = P rats, 30 mg/kg oral once daily, day 4
[4] = P rats, 30 mg/kg oral once daily, day 5

Cc1nn(-c2ncccc2CO)cc1CN1CCC2(CC1)OCC(F)(F)c1cc(Cl)sc12 [Compound 1, [2-[4-[(2-chloro-4,4-difluoro-spiro[5H-thieno[2,3-c]pyran-7,4′-piperidine]-1′-yl)methyl]-3-methyl-pyrazol-1-yl]-3-pyridyl]methanol]
Reduction vs. Vehicle (lever presses, yohimbine reinstatement) (msP rats): 72.7% | Avg Lever Presses (Drug-treated) (msP rats): 4.8 | stress-induced reinstatement of ethanol-seeking (msP rats): reduce stress-induced reinstatement of ethanol-seeking | Mean EtOH Consumed in g/kg (Drug-treated) (P rats; P rats, 3 mg/kg oral): 3.54 g/kg | Reduction vs. Vehicle (EtOH consumed) (P rats; P rats, 3 mg/kg oral): 25.2% | Mean EtOH Consumed in g/kg (Drug-treated) (P rats; P rats, 10 mg/kg oral): 3.67 g/kg | Reduction vs. Vehicle (EtOH consumed) (P rats; P rats, 10 mg/kg oral): 22.4% | Mean EtOH Consumed in g/kg (day 2) (P rats; [1]): 1.59 g/kg | Reduction vs. vehicle (EtOH consumed, day 2) (P rats; [1]): 63.6% | Mean EtOH Consumed in g/kg (day 3) (P rats; [2]): 2.02 g/kg | Reduction vs. vehicle (EtOH consumed, day 3) (P rats; [2]): 61.8% | Mean EtOH Consumed in g/kg (day 4) (P rats; [3]): 2.69 g/kg | Reduction vs. vehicle (EtOH consumed, day 4) (P rats; [3]): 45.0% | Mean EtOH Consumed in g/kg (day 5) (P rats; [4]): 2.50 g/kg | Reduction vs. vehicle (EtOH consumed, day 5) (P rats; [4]): 54.0% | Mean EtOH Consumed in g/kg (Drug-treated) (P rats; P rats, 30 mg/kg oral): 1.50 g/kg | Reduction vs. Vehicle (EtOH consumed) (P rats; P rats, 30 mg/kg oral): 68.3% | suppression of ethanol intake on repeated dosing (P rats; P rats, 4 days of once daily dosing, result in words): maintain suppression of ethanol intake in P rats throughout 4 days of once daily dosing without tachyphylaxis | ethanol self-administration (P rats; result in words): significantly reduce ethanol self-administration

Cc1nn(-c2ncccc2F)cc1CN1CCC2(CC1)OCC(F)(F)c1cc(Cl)sc12 [Compound 2, 2-Chloro-4,4-difluoro-1′-[[1-(3-fluoro-2-pyridyl)-3-methyl-pyrazol-4-yl]methyl]spiro[5H-thieno[2,3-c]pyran-7,4′-piperidine]]
Reduction vs. Vehicle (lever presses, yohimbine reinstatement) (msP rats): 69.3% | Avg Lever Presses (Drug-treated) (msP rats): 5.5 | stress-induced reinstatement of ethanol-seeking (msP rats): reduce stress-induced reinstatement of ethanol-seeking | Mean EtOH Consumed in g/kg (Drug-treated) (P rats; P rats, 10 mg/kg oral): 3.70 g/kg | Reduction vs. Vehicle (EtOH consumed) (P rats; P rats, 10 mg/kg oral): 28.3% | Mean EtOH Consumed in g/kg (Drug-treated) (P rats; P rats, 30 mg/kg oral): 3.40 g/kg | Reduction vs. Vehicle (EtOH consumed) (P rats; P rats, 30 mg/kg oral): 34.1% | ethanol self-administration (P rats; result in words): significantly reduce ethanol self-administration
